Converted amounts (≈) assume the structure as drawn. “And” between values parts separate entries of the source, which are not always exact repeats. Equal values may be shown once. Read-outs that look alike come from different tables or passages of the source.
Key:
[1] = biological target: Mycobacterium tuberculosis RNA polymerase (Mycobacterium tuberculosis, UniProt P9WGY7+P9WGY9); test: Run-off transcription assay with Mycobacterium tuberculosis RNA polymerase (radiochemical); format: biochemical
Experimental: Run-off transcription assays with Mycobacterium tuberculosis RNA polymerase were performed using reaction mixtures containing (10 μl): 0-100 μM test compound, 75 nM Mycobacterium tuberculosis RNA polymerase core enzyme, 300 nM Mycobacterium tuberculosis σ^A, 20 nM 130 bp DNA fragment containing positions −100 to −1 of the bacteriophage […] N25 promoter followed by positions +1 to +30 of the lacUV5-15 promoter of [Mukhopadhyay, J., Kapanidis, A., Mekler, V., Kortkhonjia, E., Ebright, Y., Ebright, R. (2001) Cell 106, 453-463], 25 nM [alpha-^32P]UTP (600 Bq/pmol) for an initial 2 min at 37° C. and 100 μM [alpha-^32P]UTP (6 Bq/pmol) for a subsequent 5 min at 37° C., 100 μM ATP, 100 μM GTP, 100 μM UTP, 100 μM CTP, 40 mM Tris-HCl, pH 8.0, 80 mM NaCl, 5 mM MgCl2, 2.5 mM DTT, and 12.7% glycerol. Reactions were terminated by addition of […] 80% formamide, 10 mM EDTA, 0.04% bromophenol blue, and 0.04% xylene cyanol, followed by heating for 5 min at 90° C. Reaction products were resolved by 15% urea-PAGE, and quantified using a storage-phosphor scanner.

[2] = tested on: Mycobacterium tuberculosis H37Rv; test: Microplate Alamar Blue assay (MABA) MIC, M. tuberculosis; format: cell-based
From the text: (§1) Minimal inhibitory concentrations (MICs) in Mycobacterium tuberculosis H37Rv and Mycobacterium avium ATCC 25291 were quantified using microplate Alamar Blue assays as described (MABA; [Collins, L. & Franzblau, S. (1997) Microplate Alamar Blue assay versus BACTEC 460 system for high-throughput screening of compounds against Mycobacterium tuberculosis and Mycobacterium avium. Antimicrob. Agents Chemother. 41, 1004-1009]).

[3] = tested on: Mycobacterium smegmatis ATCC 19420; test: Broth microdilution MIC, M. smegmatis; format: cell-based; details: Mycolicibacterium smegmatis
From the text: (§2) MICs in Mycobacterium smegmatis ATCC 19420 and Mycobacterium smegmatis ATCC 19420 derivatives were quantified using broth microdilution assays as described [Clinical and Laboratory Standards Institute (CLSI/NCCLS) (2009) Methods for Dilution Antimicrobial Susceptibility Tests for Bacteria That Grow Aerobically; Approved Standard, Eighth Edition. CLIS Document M07-A8 (CLIS, Wayne Pa.)].

[4] = tested on: Vero E6 ATCC CRL1586 cells; test: Mammalian-cell cytotoxicity, minimal cytotoxic concentration (CellTiter96); format: cell-based
Experimental: Minimal cytotoxic concentrations (MCCs) against mammalian cells in culture were determined using Vero E6 ATCC CRL1586 cells and the CellTiter96 assay kit (Promega, Inc.). […]

[5] = tested on: Mycobacterium avium ATCC 25291; test: Microplate Alamar Blue assay (MABA) MIC, M. avium; format: cell-based; details: ATCC25291, M. avium ATCC 25291
From the text: as §1

[6] = tested on: rifampin-resistant mutants, derivatives of M. smegmatis ATCC19420; test: MICs in rifampin-resistant mutants (cross-resistance levels); format: cell-based, Mycobacterium smegmatis
From the text: as §2

[7] = radiochemical transcription assays, M. tuberculosis RNA polymerase, read-out: Inhibition of mycobacterial RNA polymerase (IC50s)
[8] = Inhibition of mycobacterial RNA polymerase (IC50s), radiochemical transcription assays, M. tuberculosis RNA polymerase
[9] = MABA-MIC assays, read-out: Inhibition of mycobacterial growth in culture (MICs)
[10] = ATCC19420, broth microdilution assays, M. smegmatis ATCC19420, read-out: Inhibition of mycobacterial growth in culture (MICs)
[11] = IC50 Mycobacterium tuberculosis RNA polymerase
[12] = read-out: MIC Mycobacterium tuberculosis H37Rv
[13] = ATCC19420, M. smegmatis ATCC 19420, read-out: MIC Mycobacterium smegmatis ATCC 19420

Chain of Mycobacterium tuberculosis RNA polymerase (P9WGZ1 whole entry, the tested form may be a part): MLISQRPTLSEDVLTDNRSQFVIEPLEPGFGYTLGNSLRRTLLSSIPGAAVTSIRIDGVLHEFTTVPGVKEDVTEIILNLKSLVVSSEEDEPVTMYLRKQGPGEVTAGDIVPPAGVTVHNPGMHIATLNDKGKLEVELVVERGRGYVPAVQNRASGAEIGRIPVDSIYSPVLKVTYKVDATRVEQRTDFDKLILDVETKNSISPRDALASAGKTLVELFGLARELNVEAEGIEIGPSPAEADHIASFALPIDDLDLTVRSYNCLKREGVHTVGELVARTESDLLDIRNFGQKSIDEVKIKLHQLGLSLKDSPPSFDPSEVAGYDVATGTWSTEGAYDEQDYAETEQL
Chain of Mycobacterium tuberculosis RNA polymerase (P9WGY5 whole entry, further chain, the tested form may be a part): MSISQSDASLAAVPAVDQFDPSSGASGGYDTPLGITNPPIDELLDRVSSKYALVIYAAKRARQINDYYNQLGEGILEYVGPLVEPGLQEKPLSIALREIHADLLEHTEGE
Chain of Mycobacterium tuberculosis RNA polymerase (P9WGY9 whole entry, the tested form may be a part): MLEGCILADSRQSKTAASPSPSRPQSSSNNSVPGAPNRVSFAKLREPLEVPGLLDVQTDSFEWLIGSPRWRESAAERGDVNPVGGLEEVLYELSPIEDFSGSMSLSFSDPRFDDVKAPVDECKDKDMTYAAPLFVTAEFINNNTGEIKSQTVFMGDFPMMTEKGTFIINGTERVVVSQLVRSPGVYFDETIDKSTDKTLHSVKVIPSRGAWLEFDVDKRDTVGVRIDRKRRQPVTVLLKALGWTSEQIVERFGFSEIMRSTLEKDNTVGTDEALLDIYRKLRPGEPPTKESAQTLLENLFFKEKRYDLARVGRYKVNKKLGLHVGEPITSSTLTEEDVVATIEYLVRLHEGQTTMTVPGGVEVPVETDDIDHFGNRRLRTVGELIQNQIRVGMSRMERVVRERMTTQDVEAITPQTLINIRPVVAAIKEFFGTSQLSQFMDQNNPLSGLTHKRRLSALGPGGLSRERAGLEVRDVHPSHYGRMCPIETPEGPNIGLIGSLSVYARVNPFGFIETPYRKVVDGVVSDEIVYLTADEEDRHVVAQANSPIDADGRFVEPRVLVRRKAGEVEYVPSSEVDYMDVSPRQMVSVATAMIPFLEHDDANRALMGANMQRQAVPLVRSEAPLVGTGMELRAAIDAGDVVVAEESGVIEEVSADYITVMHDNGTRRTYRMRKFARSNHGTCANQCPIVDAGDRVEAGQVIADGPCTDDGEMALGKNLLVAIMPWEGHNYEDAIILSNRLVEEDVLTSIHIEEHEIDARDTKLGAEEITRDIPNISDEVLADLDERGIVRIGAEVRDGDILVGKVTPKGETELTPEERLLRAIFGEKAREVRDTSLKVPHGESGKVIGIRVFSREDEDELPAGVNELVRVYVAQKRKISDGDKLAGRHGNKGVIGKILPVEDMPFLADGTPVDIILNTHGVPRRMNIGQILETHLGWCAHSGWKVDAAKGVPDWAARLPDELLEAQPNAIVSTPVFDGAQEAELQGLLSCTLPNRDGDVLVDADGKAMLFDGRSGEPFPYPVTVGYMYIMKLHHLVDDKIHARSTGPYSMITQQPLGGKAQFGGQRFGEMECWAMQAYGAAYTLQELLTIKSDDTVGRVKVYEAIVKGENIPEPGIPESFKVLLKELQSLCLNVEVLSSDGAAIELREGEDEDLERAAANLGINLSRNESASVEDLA
Chain of Mycobacterium tuberculosis RNA polymerase (P9WGI1 whole entry, further chain, the tested form may be a part): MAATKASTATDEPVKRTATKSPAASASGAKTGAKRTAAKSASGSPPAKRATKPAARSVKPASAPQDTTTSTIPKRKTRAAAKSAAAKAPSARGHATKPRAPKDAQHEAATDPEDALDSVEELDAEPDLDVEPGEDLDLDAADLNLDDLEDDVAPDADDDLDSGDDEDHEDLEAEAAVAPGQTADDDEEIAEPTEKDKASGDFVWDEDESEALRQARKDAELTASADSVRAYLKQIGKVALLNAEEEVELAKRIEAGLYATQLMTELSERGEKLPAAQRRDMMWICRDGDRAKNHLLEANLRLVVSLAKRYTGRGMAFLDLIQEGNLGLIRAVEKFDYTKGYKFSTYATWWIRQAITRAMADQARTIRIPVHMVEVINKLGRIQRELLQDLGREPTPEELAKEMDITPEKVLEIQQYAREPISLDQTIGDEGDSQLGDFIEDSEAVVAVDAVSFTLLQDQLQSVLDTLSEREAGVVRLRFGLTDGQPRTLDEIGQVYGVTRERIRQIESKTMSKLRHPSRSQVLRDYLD
Chain of Mycobacterium tuberculosis RNA polymerase (P9WGY7 whole entry, the tested form may be a part): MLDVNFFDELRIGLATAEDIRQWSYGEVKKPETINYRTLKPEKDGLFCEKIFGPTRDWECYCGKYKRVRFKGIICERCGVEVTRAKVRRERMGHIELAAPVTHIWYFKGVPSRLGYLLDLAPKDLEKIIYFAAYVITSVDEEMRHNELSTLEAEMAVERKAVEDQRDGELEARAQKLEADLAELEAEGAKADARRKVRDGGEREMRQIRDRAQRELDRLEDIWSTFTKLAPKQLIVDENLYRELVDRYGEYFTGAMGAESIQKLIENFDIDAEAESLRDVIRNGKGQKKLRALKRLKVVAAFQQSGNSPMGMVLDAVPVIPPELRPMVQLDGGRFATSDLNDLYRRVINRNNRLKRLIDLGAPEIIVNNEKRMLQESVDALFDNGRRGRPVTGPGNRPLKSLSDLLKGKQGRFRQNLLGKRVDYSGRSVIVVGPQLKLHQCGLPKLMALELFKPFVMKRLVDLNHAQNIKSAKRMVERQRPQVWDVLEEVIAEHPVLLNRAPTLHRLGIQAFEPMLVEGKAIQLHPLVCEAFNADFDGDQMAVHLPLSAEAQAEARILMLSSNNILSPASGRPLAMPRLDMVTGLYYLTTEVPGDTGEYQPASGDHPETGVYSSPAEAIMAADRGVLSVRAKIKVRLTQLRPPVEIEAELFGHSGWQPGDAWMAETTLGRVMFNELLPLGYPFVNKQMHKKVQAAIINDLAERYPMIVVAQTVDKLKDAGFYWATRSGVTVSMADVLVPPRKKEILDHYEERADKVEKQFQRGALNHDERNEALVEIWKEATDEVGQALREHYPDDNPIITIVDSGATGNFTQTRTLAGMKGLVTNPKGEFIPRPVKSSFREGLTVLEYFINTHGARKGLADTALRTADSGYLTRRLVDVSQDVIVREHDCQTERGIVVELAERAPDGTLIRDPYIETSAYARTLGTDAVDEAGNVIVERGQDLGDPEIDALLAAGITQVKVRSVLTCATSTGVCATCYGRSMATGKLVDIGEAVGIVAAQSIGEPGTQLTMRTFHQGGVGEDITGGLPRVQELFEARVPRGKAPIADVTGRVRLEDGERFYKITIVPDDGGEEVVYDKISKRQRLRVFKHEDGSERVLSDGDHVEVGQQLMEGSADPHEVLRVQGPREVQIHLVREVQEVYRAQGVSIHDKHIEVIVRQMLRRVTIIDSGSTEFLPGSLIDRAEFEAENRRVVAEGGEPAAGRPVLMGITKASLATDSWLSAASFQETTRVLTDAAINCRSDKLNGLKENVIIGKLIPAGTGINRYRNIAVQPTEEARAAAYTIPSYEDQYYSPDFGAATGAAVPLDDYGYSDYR

Row | Structure (SMILES) | IC50 [1, 7] | IC50 [1, 8] | MIC [2, 9] | MIC [3, 10] | IC50 [1, 11] | MIC [2, 12] | MIC [3, 13] | MCC mammalian cells Vero E6 ATCC CRL1586 [4] | MIC [5] | cross-resistance of rifampin-resistant mutants to the compound [6]
1 | O=C(Nc1ccccn1)[C@H](Cc1ccccc1)Nc1ccccc1 | ≥ 100 nM and ~1000 nM |  |  |  |  |  |  |  |  | 
2 | Cc1ccccc1NC(=O)[C@@H](Cc1ccccc1)NC(=O)c1ccccc1 [AAP1a, Nα-benzoyl-N-(2-methylphenyl)-D-phenylalaninamide] |  | 130 nM | 3.13 µg/mL (≈ 8.73 µM) | 0.2 µg/mL (≈ 0.558 µM) |  |  |  |  |  | 
3 | Cc1ccccc1NC(=O)[C@H](Cc1ccccc1)NC(=O)c1ccccc1 [AAP1b, Nα-benzoyl-N-(2-methylphenyl)-L-phenylalaninamide] |  | 12000 nM | > 50 µg/mL | 1.56 µg/mL (≈ 4.35 µM) |  |  |  |  |  | 
4 | Cc1ccc(NC(=O)C(Cc2ccccc2)NC(=O)c2ccco2)cc1 (stereo not drawn) [AAP2] |  | 5300 nM | 50 µg/mL (≈ 144 µM) |  |  |  |  |  |  | 
5 | Cc1ccccc1NC(=O)C(Cc1cccc(O)c1)NC(=O)c1ccccc1 (stereo not drawn) [I-12] |  |  |  |  | 3500 nM | > 50 µg/mL | 3.12 µg/mL (≈ 8.35 µM) | >100 µg/mL |  | 
6 | COc1ccccc1NC(=O)C(Cc1ccccc1)NC(=O)c1ccccc1 (stereo not drawn) [I-17] |  |  |  |  |  | 3.13 µg/mL (≈ 8.36 µM) | 0.39 µg/mL (≈ 1.04 µM) | >37 µg/mL | 6.25 µg/mL (≈ 16.7 µM) | No rifampin-resistant mutant was found to exhibit cross-resistance
7 | CCCOc1ccccc1NC(=O)C(Cc1ccccc1)NC(=O)c1ccccc1 (stereo not drawn) [I-39] |  |  |  |  |  | 6.25 µg/mL (≈ 15.5 µM) | 0.78 µg/mL (≈ 1.94 µM) | 20 µg/mL | > 50 µg/mL | No rifampin-resistant mutant was found to exhibit cross-resistance
8 | Cc1ccc(F)cc1NC(=O)C(Cc1ccccc1)NC(=O)c1ccccc1 (stereo not drawn) [I-75] |  |  |  |  | 990 nM | 1.56 µg/mL (≈ 4.14 µM) | 0.195 µg/mL (≈ 0.518 µM) | 4 µg/mL | 1.56 µg/mL (≈ 4.14 µM) | 
9 | Cc1ccccc1NC(=O)C(Cc1ccccc1)NC(=O)c1ccccc1Cl (stereo not drawn) [I-91] |  |  |  |  |  | > 50 µg/mL | 0.39 µg/mL (≈ 0.993 µM) | 19 µg/mL | > 50 µg/mL | No rifampin-resistant mutant was found to exhibit cross-resistance
10 | Cc1ccccc1NC(=O)C(Cc1ccccc1)NC(=O)c1ccccc1C (stereo not drawn) [I-112] |  |  |  |  |  | > 50 µg/mL | 0.39 µg/mL (≈ 1.05 µM) | 13 µg/mL | > 50 µg/mL | No rifampin-resistant mutant was found to exhibit cross-resistance
11 | CCc1ccccc1NC(=O)C(Cc1ccccc1)NC(=O)c1ccccc1 (stereo not drawn) [I-115] |  |  |  |  |  | > 50 µg/mL | 0.39 µg/mL (≈ 1.05 µM) | 37 µg/mL | > 50 µg/mL | No rifampin-resistant mutant was found to exhibit cross-resistance
12 | Cc1c(NC(=O)C(Cc2ccccc2)NC(=O)c2ccccc2)cccc1C(F)(F)F (stereo not drawn) [I-160] |  |  |  |  |  | > 50 µg/mL | 3.12 µg/mL (≈ 7.33 µM) | 21 µg/mL | > 50 µg/mL | No rifampin-resistant mutant was found to exhibit cross-resistance
13 | O=C(NC(Cc1ccccc1)C(=O)Nc1ccccc1N1CCOCC1)c1ccccc1 (stereo not drawn) [I-181] |  |  |  |  | 400 nM | 0.78 µg/mL (≈ 1.82 µM) | 0.073 µg/mL (≈ 0.17 µM) | >100 µg/mL | 6.25 µg/mL (≈ 14.6 µM) | 
14 | Cc1ccccc1NC(=O)C(Cc1ccc(OC(=O)c2ccccc2)cc1)NC(=O)c1ccccc1 (stereo not drawn) [I-236, 4-(2-benzamido-3-oxo-3-(o-tolylamino)propyl)phenyl benzoate] |  |  |  |  |  | 25 µg/mL (≈ 52.2 µM) | 0.39 µg/mL (≈ 0.815 µM) | >48 µg/mL |  | No rifampin-resistant mutant was found to exhibit cross-resistance
15 | Cc1ncccc1NC(=O)C(Cc1ccccc1)NC(=O)c1ccccc1 (stereo not drawn) [II-5] |  |  |  |  |  | 50 µg/mL (≈ 139 µM) | 3.12 µg/mL (≈ 8.68 µM) | >36 µg/mL | > 50 µg/mL | No rifampin-resistant mutant was found to exhibit cross-resistance
16 | Cc1ccccc1NC(=O)C(Cc1ccccc1)NC(=O)c1ccccn1 (stereo not drawn) [II-12] |  |  |  |  |  | 25 µg/mL (≈ 69.6 µM) | 3.12 µg/mL (≈ 8.69 µM) | >36 µg/mL | 50 µg/mL (≈ 139 µM) | No rifampin-resistant mutant was found to exhibit cross-resistance
17 | Cc1ccccc1NC(=O)C(Cc1ccccc1)NC(=O)c1cccnc1 (stereo not drawn) [II-13] |  |  |  |  |  | > 50 µg/mL | 6.25 µg/mL (≈ 17.4 µM) | >36 µg/mL |  | No rifampin-resistant mutant was found to exhibit cross-resistance
18 | O=C(NC(Cc1ccccc1)C(=O)Nc1cccc2cc[nH]c12)c1ccccc1 (stereo not drawn) [II-28] |  |  |  |  |  | 12.5 µg/mL (≈ 32.6 µM) | 0.78 µg/mL (≈ 2.03 µM) | 13 µg/mL | > 50 µg/mL | No rifampin-resistant mutant was found to exhibit cross-resistance
19 | Cc1ccccc1NC(=O)C(Cc1ccccc1)NC(=O)c1cccc2[nH]ccc12 (stereo not drawn) [II-39] |  |  |  |  |  | 12.5 µg/mL (≈ 31.4 µM) | 0.39 µg/mL (≈ 0.981 µM) | 36 µg/mL | 12.5 µg/mL (≈ 31.4 µM) | No rifampin-resistant mutant was found to exhibit cross-resistance
20 | O=C(NC(Cc1ccccc1)C(=O)Nc1cccc2cccnc12)c1ccccc1 (stereo not drawn) [IX-2, N-(1-oxo-3-phenyl-1-(quinolin-8-ylamino)propan-2-yl)benzamide] |  |  |  |  |  | > 39 µg/mL | 3.12 µg/mL (≈ 7.9 µM) | >39 µg/mL | > 50 µg/mL | No rifampin-resistant mutant was found to exhibit cross-resistance
21 | O=C(NC(Cc1ccccc1)C(=O)Nc1cccc2cnccc12)c1ccccc1 (stereo not drawn) [IX-3, N-(1-(isoquinolin-5-ylamino)-1-oxo-3-phenylpropan-2-yl)benzamide] |  |  |  |  |  | 3.13 µg/mL (≈ 7.91 µM) | 0.195 µg/mL (≈ 0.493 µM) | >40 µg/mL | 6.25 µg/mL (≈ 15.8 µM) | No rifampin-resistant mutant was found to exhibit cross-resistance
22 | O=C(NC(Cc1ccccc1)C(=O)Nc1cccc2ncccc12)c1ccccc1 (stereo not drawn) [IX-4, N-(1-oxo-3-phenyl-1-(quinolin-5-ylamino)propan-2-yl)benzamide] |  |  |  |  |  | 12.5 µg/mL (≈ 31.6 µM) | 0.78 µg/mL (≈ 1.97 µM) | >40 µg/mL | > 50 µg/mL | No rifampin-resistant mutant was found to exhibit cross-resistance
23 | O=C(NC(Cc1ccccc1)C(=O)Nc1cccc2c1OCCO2)c1ccccc1 (stereo not drawn) [IX-5, N-(1-((2,3-dihydrobenzo[b][1,4]dioxin-5-yl)amino)-1-oxo-3-phenylpropan-2-yl)benzamide] |  |  |  |  |  | 6.25 µg/mL (≈ 15.5 µM) | 0.39 µg/mL (≈ 0.969 µM) | >40 µg/mL | 6.25 µg/mL (≈ 15.5 µM) | No rifampin-resistant mutant was found to exhibit cross-resistance
24 | O=C(NC(Cc1ccc(O)cc1)C(=O)Nc1cccc2c1CCC2)c1ccccc1 (stereo not drawn) [IX-14, N-(1-((2,3-dihydro-1H-inden-4-yl)amino)-3-(4-hydroxyphenyl)-1-oxopropan-2-yl)benzamide] |  |  |  |  |  | 6.25 µg/mL (≈ 15.6 µM) | 0.39 µg/mL (≈ 0.974 µM) | >40 µg/mL | 12.5 µg/mL (≈ 31.2 µM) | No rifampin-resistant mutant was found to exhibit cross-resistance
25 | Cc1ccccc1N[C@@H](Cc1ccccc1)C(=O)Nc1ccccc1 [Nα-(2-methylphenyl)-N-phenyl-phenylalaninamide] | ≥ 100 nM |  |  | ≥ 0.3 µg/mL |  |  |  |  |  | 
26 | O=C(Nc1ccccc1F)[C@H](Cc1ccccc1)Nc1ccccc1 [Nα-phenyl-N-(2-fluorophenyl)-phenylalaninamide] | ≥ 100 nM |  |  | ≥ 0.3 µg/mL |  |  |  |  |  | 
27 | O=C(Nc1ccncc1)[C@H](Cc1ccccc1)Nc1ccccc1 [Nα-phenyl-N-(4-pyridyl)-phenylalaninamide] | ≥ 100 nM |  |  | ≥ 0.3 µg/mL |  |  |  |  |  | 
28 | O=C(Nc1ccccc1)[C@H](Cc1ccccc1)Nc1ccccc1 [Nα-phenyl-N-phenyl-phenylalaninamide] | ≥ 100 nM |  |  | ≥ 0.3 µg/mL |  |  |  |  |  | 

Source: patent US9919998B2, “Antibacterial agents: Nα-aroyl-N-aryl-phenylalaninamides” (priority 2014, dated 2018)
